From ChEMBL document CHEMBL3871263, “Arylthiosemicarbazones as antileishmanial agents” (Eur J Med Chem, 2016) come the findings set out here.

Data set [1] can be described thus: Cytotoxicity against human THP1 cells assessed as reduction in cell growth measured after 72 hrs by MTT assay. The format is toxicity, cell-based, THP-1. For orientation: Tetrazolium assays rely on reduction of a dye to a coloured formazan, in cell work by metabolically active cells.
The nature of data set [2]: Cytotoxicity against human MRC5 cells assessed as reduction in cell growth measured after 72 hrs by MTT assay. It is filed as toxicity, cell-based.
In a further data set the test system is Leishmania donovani. As to the kind of experiment: Antileishmanial activity against intracellular amastigote stage of Leishmania donovani MHOM/ET/67/HU3 infected in human THP1 cells assessed as parasite growth measured after 72 hrs by luciferase reporter gene assay. The format is functional, cell-based. The following applies: MHOM/ET/67/HU3, THP-1, 72 h.
Data set [3] is described as follows: Selectivity index, ratio of EC50 for human MRC5 cells to EC50 for intracellular Leishmania donovani MHOM/ET/67/HU3 amastigotes. It is filed as toxicity, cell-based. The following applies: read-out: Ratio EC50.

As for `Cn1cc(/C=N/NC(N)=S)c2ccccc21`, the EC50 at 72 h in data set [1] and in data set [2] was over 200 µM throughout. In addition, in the data set with Leishmania donovani, the EC50 (usually the concentration giving half of the maximal effect) is over 10 µM.

With `Cn1ccc2cc(/C=N/NC(N)=S)ccc21`, the 50% effective concentration (EC50) at 72 h in data set [1] and in data set [2] was over 200 µM throughout. For the same molecule, the half-maximal effective concentration (EC50) in the data set with Leishmania donovani was over 10 µM.

`CN(C)c1ccc(/C=N/N=C(/N)S)c2ccccc12`: the EC50 at 72 h in data set [1] and in data set [2] was over 200 µM each time. In the data set with Leishmania donovani, the EC50 turned out to be 6.5 µM. In data set [3], the selectivity ratio is over 30.

As for `CCCCOc1ccc2cc(/C=N/NC(N)=S)ccc2c1`, the EC50 at 72 h was determined as 36 µM in data set [1] and 43 µM in data set [2]. The half-maximal effective concentration (EC50) in the data set on Leishmania donovani is 1.27 µM. Further, in data set [3], the selectivity ratio was 33.2.

For `NC(=S)N/N=C/c1ccc(F)c2ccccc12`, the EC50 at 72 h in data set [1] was 39 µM; in data set [2], over 200 µM. Also, in the data set with Leishmania donovani, the half-maximal effective concentration (EC50) worked out at 0.8 µM. Moreover, the selectivity ratio in data set [3] is over 250.

Turning to `COCOc1c(/C=N/NC(N)=S)ccc2ccccc12`, the EC50 at 72 h in data set [1] turned out to be 56 µM; in data set [2], 119 µM. In the data set with Leishmania donovani, the EC50 amounted to 6.8 µM. Besides, the selectivity ratio in data set [3] came to 17.5.

For `COCOc1ccc2cc(/C=N/NC(N)=S)ccc2c1`, the EC50 at 72 h was over 200 µM in data set [1] and 175 µM in data set [2]. For the same molecule, in the data set with Leishmania donovani, the EC50 was over 10 µM.

`NC(=S)N/N=C/c1cc2ccccc2c2ccccc12`: the results for the concentration for a half-maximal effect (EC50) at 72 h in data set [1] and in data set [2] were over 200 µM and 192 µM, respectively. Also, the EC50 in the data set on Leishmania donovani was over 10 µM.

With `NC(=S)N/N=C/c1c(OCC2CCCCC2)ccc2ccccc12`, the concentration for a half-maximal effect (EC50) at 72 h in data set [1] came to 28 µM; in data set [2] it was 33 µM. For the same molecule, the concentration giving a half-maximal response (EC50) with Leishmania donovani was over 10 µM.

As for `CCOc1ccc(/C=N/NC(N)=S)c2ccccc12`, the concentration for a half-maximal effect (EC50) at 72 h in data set [1] and in data set [2] was over 200 µM in each case. For the same molecule, in the data set on Leishmania donovani, the EC50 came to 7.2 µM. The selectivity ratio in data set [3] is over 30.

On to `NC(=S)N/N=C/c1cn(CCCc2ccccc2)c2ccccc12`, for which the values for the EC50 at 72 h in data set [1] and in data set [2] were 30 µM and over 200 µM, respectively. In addition, in the data set on Leishmania donovani, the concentration for a half-maximal effect (EC50) is 4.1 µM. Also, in data set [3], the selectivity ratio is over 50.

In the case of `CCOc1ccc2cc(/C=N/NC(N)=S)ccc2c1`, the EC50 at 72 h in data set [1] was 30 µM; in data set [2], over 200 µM. In addition, the EC50 in the data set with Leishmania donovani came out at 5.4 µM. Moreover, the selectivity ratio in data set [3] is over 40.

Regarding `NC(=S)N/N=C/c1cn(CC2CCCCC2)c2ccccc12`, the values for the EC50 at 72 h in data set [1] and in data set [2] were 27 µM and 26 µM, respectively. The concentration giving a half-maximal response (EC50) with Leishmania donovani came out at 9 µM. The selectivity ratio in data set [3] was found to be 2.8.

In the case of `NC(=S)N/N=C/c1ccc(OCC2CCCCC2)c2ccccc12`, the figures for the concentration for a half-maximal effect (EC50) at 72 h in data set [1] and in data set [2] were 150 µM and 28.9 µM, respectively. In the data set with Leishmania donovani, the EC50 is 2.2 µM. Moreover, in data set [3], the selectivity ratio came to 13.1.

Consider `Cc1ccc(/C=N/NC(N)=S)c2ccccc12`, for which the values for the EC50 at 72 h in data set [1] and in data set [2] were 32 µM and 37 µM, respectively. In the data set with Leishmania donovani, the EC50 came out at 1.2 µM. In addition, the selectivity ratio in data set [3] amounted to 30.4.

With `NC(=S)N/N=C/c1ccc2ccccc2c1OCc1ccccc1`, the EC50 at 72 h was found to be 28 µM in data set [1] and 25 µM in data set [2]. In addition, the EC50 in the data set on Leishmania donovani was found to be 2.6 µM. Besides, in data set [3], the selectivity ratio was determined as 9.7.

Turning to `CCCCOc1c(/C=N/NC(N)=S)ccc2ccccc12`, the values for the 50% effective concentration (EC50) at 72 h in data set [1] and in data set [2] were over 200 µM and 86 µM, respectively. Also, in the data set on Leishmania donovani, the 50% effective concentration (EC50) came out at 1.4 µM. Further, the selectivity ratio in data set [3] came out at 61.5.

With `COc1ccc2cc(/C=N/NC(N)=S)ccc2c1`, the 50% effective concentration (EC50) at 72 h in data set [1] was 108 µM; in data set [2], over 250 µM. The 50% effective concentration (EC50) in the data set with Leishmania donovani worked out at 9.3 µM. The selectivity ratio in data set [3] is over 20.

Regarding `NC(=S)N/N=C/c1cn(Cc2ccccc2)c2ccccc12`, the EC50 at 72 h was 28 µM in data set [1] and 175 µM in data set [2]. In addition, the half-maximal effective concentration (EC50) with Leishmania donovani was over 10 µM.

`COc1ccc2c(OC)ccc(/C=N/NC(N)=S)c2c1`: the EC50 at 72 h in data set [1] and in data set [2] was over 200 µM each time. In addition, the concentration for a half-maximal effect (EC50) in the data set on Leishmania donovani turned out to be 9 µM. Also, the selectivity ratio in data set [3] was over 20.

With `NC(=S)N/N=C/c1ccc(OCc2ccccc2)c2ccccc12`, the concentration for a half-maximal effect (EC50) at 72 h in data set [1] came out at 27 µM; in data set [2] it was 29 µM. Also, the EC50 in the data set with Leishmania donovani was determined as 1.9 µM. For the same molecule, in data set [3], the selectivity ratio is 15.2.

On to `NC(=S)N/N=C/c1c2ccccc2cc2ccccc12`, for which the EC50 at 72 h was 67 µM in data set [1] and 45 µM in data set [2]. The EC50 in the data set on Leishmania donovani turned out to be 5.3 µM. Also, in data set [3], the selectivity ratio is 8.5.

For `COCOc1ccc(/C=N/NC(N)=S)c2ccccc12`, the EC50 at 72 h in data set [1] was over 200 µM; in data set [2] it was 126 µM. Further, the EC50 with Leishmania donovani is over 10 µM.

`NC(=S)N/N=C/c1ccc2cc(OCc3ccccc3)ccc2c1`: the EC50 at 72 h in data set [1] was determined as 28 µM; in data set [2], 27 µM. The concentration for a half-maximal effect (EC50) in the data set with Leishmania donovani is 1.2 µM. Besides, the selectivity ratio in data set [3] is 22.6.

With `COc1ccc(/C=N/NC(N)=S)c2ccccc12`, the EC50 at 72 h turned out to be 47 µM in data set [1] and 42 µM in data set [2]. Moreover, the half-maximal effective concentration (EC50) in the data set on Leishmania donovani worked out at 5 µM. In addition, the selectivity ratio in data set [3] was found to be 8.4.

As to `NC(=S)N/N=C/c1c(OCc2ccccc2)ccc2ccccc12`, the figures for the EC50 at 72 h in data set [1] and in data set [2] were 39 µM and 30 µM, respectively. In addition, the EC50 in the data set on Leishmania donovani amounted to 8.1 µM. Moreover, the selectivity ratio in data set [3] was found to be 3.7.

Turning to `Cc1cccc(Cn2cc(/C=N/NC(N)=S)c3ccccc32)c1`, the figures for the EC50 at 72 h in data set [1] and in data set [2] were 32 µM and 23 µM, respectively. Further, the half-maximal effective concentration (EC50) in the data set on Leishmania donovani was 4.3 µM. In addition, the selectivity ratio in data set [3] is 5.3.

Regarding `CCCCOc1ccc(/C=N/NC(N)=S)c2ccccc12`, the values for the 50% effective concentration (EC50) at 72 h in data set [1] and in data set [2] were over 200 µM and 41 µM, respectively. For the same molecule, the EC50 in the data set with Leishmania donovani was 2.1 µM. In addition, the selectivity ratio in data set [3] amounted to 19.5.

On to `NC(=S)N/N=C/c1ccc(-c2ccc(/C=N/NC(N)=S)cc2)cc1`, for which the concentration for a half-maximal effect (EC50) at 72 h in data set [1] and in data set [2] was over 200 µM each time. Further, the EC50 with Leishmania donovani is over 10 µM.

With `CCCCn1cc(/C=N/NC(N)=S)c2cccc(C)c21`, the half-maximal effective concentration (EC50) at 72 h is over 200 µM in data set [1] and 31 µM in data set [2]. In the data set on Leishmania donovani, the concentration giving a half-maximal response (EC50) worked out at 9 µM. Further, the selectivity ratio in data set [3] came to 3.4.

Regarding `Cn1c(/C=N/N=C(/N)S)cc2ccccc21`, the EC50 at 72 h in data set [1] and in data set [2] was over 200 µM throughout. Further, the concentration giving a half-maximal response (EC50) with Leishmania donovani was over 10 µM.

As for `COc1ccc2ccccc2c1/C=N/N=C(/N)S`, the 50% effective concentration (EC50) at 72 h in data set [1] came to 109 µM; in data set [2] it was 126 µM. Besides, the concentration giving a half-maximal response (EC50) with Leishmania donovani is over 10 µM.

On to `C[C@@H]1[C@H](O)[C@@H](C)/C=C/C=C/C=C/C=C/C=C/C=C/C=C/[C@H](O[C@@H]2O[C@H](C)[C@@H](O)[C@H](N)[C@@H]2O)C[C@@H]2O[C@](O)(C[C@@H](O)C[C@@H](O)[C@H](O)CC[C@@H](O)C[C@@H](O)CC(=O)O[C@H]1C)C[C@H](O)[C@H]2C(=O)O` [AMPHOTERICIN B], for which the half-maximal effective concentration (EC50) at 72 h turned out to be 38 µM in data set [1] and 23 µM in data set [2].
